US20180000952A1, “ENZYME AND RECEPTOR MODULATION” (GlaxoSmithKline Intellectual Property Development Limited, priority 2005, published 2018)
Like-named read-outs stand apart in the source and are kept apart here.

Experiments:
recombinant human DHFR = target: T1, recombinant human DHFR (Homo sapiens, UniProt P00374); assay: Dihydrofolate reductase (DHFR) inhibitory activity assay; type: biochemical
T1 construct: purchased Sigma CS0340
T1 sequence (P00374 1-187): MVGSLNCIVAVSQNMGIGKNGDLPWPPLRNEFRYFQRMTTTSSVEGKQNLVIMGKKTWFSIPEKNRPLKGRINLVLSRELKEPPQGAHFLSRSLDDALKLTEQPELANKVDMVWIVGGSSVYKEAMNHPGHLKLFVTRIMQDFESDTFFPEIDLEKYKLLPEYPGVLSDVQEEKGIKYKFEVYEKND
Description: The ability of compounds to inhibit DHFR activity was measured in an assay based on the ability of DHFR to catalyse the reversible NADPH-dependent reduction of dihydrofolic acid to tetrahydrofolic acid using a Sigma kit (Catalogue number CS0340). This uses proprietary assay buffer and recombinant human DHFR at 7.5×10^−4 Unit per reaction, NADPH at 60 μM and dihydrofolic acid at 50 μM. The reaction was followed by monitoring the decrease in absorbance at 340 nm, for a 2 minute period, at room temperature, and the enzyme activity was calculated as the rate of decrease in absorbance. Enzyme activity, in the presence of inhibitor, was expressed as a percentage of inhibitor-free activity and the inhibitor IC50 was determined from a sigmoidal dose response curve using XIfit software (% activity against log concentration of compound). Each sample was run in triplicate and each dose response curve was composed of 10 dilutions of the inhibitor.

HCT 116 cells = assay: Cell proliferation inhibition assay (WST-1), HCT116; type: cell-based; settings: for Ratio IC50 Cell/enzyme (HCT116), Table 2: HCT116 cell IC50 / DHFR enzyme IC50
Description: (§1) Following 24 h of growth cells were treated with compound. Plates were then re-incubated for a further 72-96 h before a WST-1 cell viability assay was conducted according to the suppliers (Roche Applied Science) instructions
(§2) Data were expressed as a percentage inhibition of the control, measured in the absence of inhibitor, as follows;—
(§3) where S^l is the signal in the presence of inhibitor and S^o is the signal in the presence of DMSO.
(§4) Dose response curves were generated from 8 concentrations (top final concentration 10 μM, with 3-fold dilutions), using 6 replicates.

U937 cells = assay: Cell proliferation inhibition assay (WST-1), U937; type: cell-based; settings: for selectivity between a monocytic and non-monocytic cell line (cell proliferation): U937 versus HCT116; for Ratio IC50 cell/enzyme (Aurora kinase): U937 cell IC50 / Aurora kinase A IC50
Description: as §1, §2, §3, §4

[1] = tested on: U937 cell extract (esterase activity); assay: Broken cell carboxylesterase assay, U937 cell extract; type: in vitro ADME; settings: U937 versus HCT116 broken cell assay
Description: U937 or HCT 116 tumour cells (˜10^9) were washed in 4 volumes of Dulbeccos PBS (˜1 litre) and pelleted at 525 g for 10 min at 4° C. This was repeated twice and the final cell pellet was resuspended in 35 ml of cold homogenising buffer (Trizma 10 mM, NaCl 130 mM, CaCl2 0.5 mM pH 7.0 at 25° C.). Homogenates were prepared by nitrogen cavitation (700 psi for […] at 4° C.). The homogenate was kept on ice and supplemented with a cocktail of Inhibitors at final concentrations of: • Leupeptin 1 μM • Aprotinin 0.1 μM • E64 8 μM • Pepstatin 1.5 μM • Bestatin 162 μM • Chymostatin 33 μM
After clarification of the cell homogenate by centrifugation at 525 g for 10 min, the resulting supernatant was used as a source of esterase activity and was stored at −80° C. until required.
Hydrolysis of esters to the corresponding carboxylic acids can be measured using the cell extract, prepared as above. To this effect cell extract (˜30 μg/total assay volume of 0.5 ml) was incubated at 37° C. in a Tris-HCl 25 mM, 125 mM NaCl buffer, pH 7.5 at 25° C. At zero time the ester (substrate) was then added at a final concentration of 2.5 μM and the samples were incubated at 37° C. for the appropriate time (usually 0 or 80 min). […] After centrifugation at 12000 g for 5 min, samples were analysed for the ester and its corresponding carboxylic acid at room temperature by LCMS (Sciex API 3000, HP1100 binary pump, CTC PAL). […]

[2] = tested on: TNFα production in human whole blood; assay: LPS-stimulation of human whole blood, TNF-α ELISA; type: cell-based; settings: for Ratio IC50 WB/enzyme (P38 MAP kinase): whole blood IC50 / P38 MAP kinase IC50; for Ratio IC50 WB/enzyme (PI 3-Kinase): whole blood IC50 / PI3-Kinase IC50
Description: Whole blood was taken by venous puncture using heparinised vacutainers (Becton Dickinson) and diluted in an equal volume of RPMI1640 tissue culture media. 100 μl was plated in V-bottomed 96 well tissue culture plates. Inhibitor was added in 100 μl of RPMI1640 media, and 2 h later the blood was stimulated with LPS (E coli strain 005:B5, Sigma) at a final concentration of 100 ng/ml and incubated at 37° C. in 5% CO2 for 6 h. TNF-α levels were measured from cell-free supernatants by sandwich ELISA (R&D Systems #QTA00B).

[3] = compound as shown (ester or unmodified modulator, or named acid), read-out: IC50 nM enzyme (DHFR)
[4] = enzyme IC50 for the acid resulting from cleavage of the ester shown, read-out: IC50 nM enzyme (acid), figures in brackets

Cc1c(CNc2ccc(OCCC(N)C(=O)OC3CCCC3)cc2)cnc2nc(N)nc(N)c12 (stereo not drawn)
IC50 (recombinant human DHFR; [3]): 2700 nM | IC50 (recombinant human DHFR; [4]): 11 nM | Ratio IC50 Cell/enzyme (HCT116), Table 2 (HCT 116 cells): 14

Cc1c(CNc2ccc(OCCC(NC3CCCCC3)C(=O)OC3CCCC3)cc2)cnc2nc(N)nc(N)c12 (stereo not drawn)
IC50 (recombinant human DHFR; [3]): 1030 nM | IC50 (recombinant human DHFR; [4]): 25 nM | Ratio IC50 Cell/enzyme (HCT116), Table 2 (HCT 116 cells): 66

Cc1c(CNc2ccc(CNC(CC(C)C)C(=O)OC3CCCC3)cc2)cnc2nc(N)nc(N)c12 (stereo not drawn)
IC50 (recombinant human DHFR; [3]): 4000 nM | IC50 (recombinant human DHFR; [4]): 10 nM | Ratio IC50 Cell/enzyme (HCT116), Table 2 (HCT 116 cells): 17

Cc1c(CNc2ccc(C(=O)NC(CC(C)C)C(=O)OC3CCCC3)cc2)cnc2nc(N)nc(N)c12 (stereo not drawn)
IC50 (recombinant human DHFR; [3]): 1700 nM | IC50 (recombinant human DHFR; [4]): 8 nM

COc1cc(NCc2cnc3nc(N)nc(N)c3c2C)cc(OC)c1OC [Compound (2 G=N), 5-Methyl-6-((3,4,5-trimethoxyphenylamino)methyl)pyrido[2,3-d]pyrimidine-2,4-diamine, reference compound]
IC50 (recombinant human DHFR; [3]): 10 nM

Cc1c(CNc2ccc(OCC[C@H](NC3CCCCC3)C(=O)OC3CCCC3)cc2)cnc2nc(N)nc(N)c12 [Compound (4), (S)-2-Cyclohexylamino-4-{4-[(2,4-diamino-5-methyl-pyrido[2,3-d]pyrimidin-6-ylmethyl)-amino]-phenoxy}-butyric acid cyclopentyl ester]
selectivity between a monocytic and non-monocytic cell line (cell proliferation) (U937 cells): significantly more anti-proliferative in monocytic cell lines | cleavage of the ester in monocytic versus non-monocytic cell lines [1]: selective cleavage in monocytic but not non-monocytic cell lines

Cc1c(CNc2ccc(CN[C@@H](CC(C)C)C(=O)OC3CCCC3)cc2)cnc2nc(N)nc(N)c12 [Compound (5), (S)-2-{4-[(2,4-Diamino-5-methyl-pyrido[2,3-d]pyrimidin-6-ylmethyl)-amino]-benzylamino}-4-methyl-pentanoic acid cyclopentyl ester]
selectivity between a monocytic and non-monocytic cell line (cell proliferation) (U937 cells): significantly more anti-proliferative in monocytic cell lines | cleavage of the ester in monocytic versus non-monocytic cell lines [1]: selective cleavage in monocytic but not non-monocytic cell lines

Cc1c(CNc2ccc(C(=O)N[C@@H](CC(C)C)C(=O)OC3CCCC3)cc2)cnc2nc(N)nc(N)c12 [Compound (6), (S)-2-{4-[(2,4-Diamino-5-methyl-pyrido[2,3-d]pyrimidin-6-ylmethyl)-amino]-benzoylamino}-4-methyl-pentanoic acid cyclopentyl ester]
fold more potent in U937 cells than the unmodified analogue (2 G=N) (U937 cells; U937 cells, versus (2 G=N)): 100 fold | IC50 (recombinant human DHFR; [3]): 1700 nM | fold more potent in the HCT116 than the unmodified analogue (2 G=N) (HCT 116 cells; HCT116, versus (2 G=N)): 15 fold

COc1cc2nccc(Oc3ccc(NC(=O)c4ccccc4)cc3)c2cc1OC [Compound (11), N-{4-(7-methoxy-6-methoxy-quinoline-4-yloxy)-phenyl}-benzamide, reference compound]
Ratio IC50 cell/enzyme (Aurora kinase) (U937 cells): 1.3

COc1cc2c(Oc3ccc(NC(=O)c4ccccc4)cc3)ccnc2cc1OCC[C@H](N)C(=O)OC1CCCC1 [Compound (12), (S)-2-amino-4-[4-(4-benzoylamino-phenoxy)-6-methoxy-quinolin-7-yloxy]-butyric acid cyclopentyl ester]
Ratio IC50 cell/enzyme (Aurora kinase) (U937 cells): 0.0015

COc1cc2c(Oc3ccc(NC(=O)c4ccccc4)cc3)ccnc2cc1OCC[C@H](N)C(=O)OC(C)(C)C [Compound (14), (S)-2-Amino-4-[4-(4-benzoylamino-phenoxy)-6-methoxy-quinolin-7-yloxy]-butyric acid tert-butyl ester]
Ratio IC50 cell/enzyme (Aurora kinase) (U937 cells): 0.025

Nc1c(C(=O)c2ccc(F)cc2F)ccc(=O)n1-c1c(F)cccc1F [Compound (15), 6-Amino-5-(2,4-difluoro-benzoyl)-1-(2,6-difluoro-phenyl)-1H-pyridin-2-one, reference compound]
Ratio IC50 WB/enzyme (P38 MAP kinase) [2]: 6

CC(C)(C)OC(=O)[C@@H](N)CCOc1cc(F)c(-n2c(N)c(C(=O)c3ccc(F)cc3F)ccc2=O)c(F)c1 [Compound (18), (S)-2-Amino-4-{4-[6-amino-5-(2,4-difluoro-benzoyl)-2-oxo-2H-pyridin-1-yl]-3,5-difluoro-phenoxy}-butyric acid tert-butyl ester]
Ratio IC50 WB/enzyme (P38 MAP kinase) [2]: 18

Cc1c(CNc2ccc(C(=O)N[C@@H](CC(C)C)C(=O)O)cc2)cnc2nc(N)nc(N)c12 [Compound (19), (S)-2-(4-((2,4-diamino-5-methylpyrido[2,3-d]pyrimidin-6-yl)methylamino)benzamido)-4-methylpentanoic acid]
IC50 (recombinant human DHFR; [3]): 10 nM

CC(=O)Nc1nc(C)c(-c2ccc(Cl)c(S(C)(=O)=O)c2)s1 [Compound (20), N-[5-(4-Chloro-3-methanesulfonyl-phenyl)-4-methyl-thiazol-2-yl]-acetamide, reference compound]
Ratio IC50 WB/enzyme (PI 3-Kinase) [2]: 17

Cc1nc(NC(=O)CC[C@H](N)C(=O)OC2CCCC2)sc1-c1ccc(Cl)c(S(C)(=O)=O)c1 [Compound (21), (S)-2-Amino-4-[5-(4-chloro-3-methanesulfonyl-phenyl)-4-methyl-thiazol-2-ylcarbamoyl]-butyric acid cyclopentyl ester]
Ratio IC50 WB/enzyme (PI 3-Kinase) [2]: 0.15

Cc1nc(NC(=O)CC[C@H](N)C(=O)OC(C)(C)C)sc1-c1ccc(Cl)c(S(C)(=O)=O)c1 [Compound (23), (S)-2-Amino-4-[5-(4-chloro-3-methanesulfonyl-phenyl)-4-methyl-thiazol-2-ylcarbamoyl]-butyric acid tert-butyl ester]
Ratio IC50 WB/enzyme (PI 3-Kinase) [2]: 0.75

COc1cc(NCc2cnc3nc(N)nc(N)c3c2C)cc(OC)c1OC [drawing 10]
Ratio IC50 cell/enzyme (U937), Table 2 (U937 cells; U937 cell IC50 / DHFR enzyme IC50): 220 | Ratio IC50 Cell/enzyme (HCT116), Table 2 (HCT 116 cells): 170
